The results in this text go back to ChEMBL document CHEMBL1201862, “PubChem BioAssay data set” (2004).

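Dose response: 5 concentrations. Exposure: 48 h. Format: 96-well plates. Endpoint: linear interpolation; highest concentration if not reached. GI50 is the concentration that inhibits growth by half.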 Activity calls are given as the source filed them. Cut-off read from the data, not from the text of the source: active = GI50 up to about 1.1 µM and inactive = higher.

Common to all, as to assay: NCI tumour cell line growth inhibition, 48 h
Assay [1] relates to MDA-MB-231.
In assay [2] the test system is ACHN.
Assay [3] concerns HCT-15.
Assay [4] has as its system SK-MEL-2.
In assay [5] the test system is HL-60.
Assay [6] deals with HT-29.
Assay [7] deals with RPMI-8226.
The test system of assay [8] is RXF 393.
Assay [9] relates to TK-10.
Assay [10] concerns CCRF-CEM.
Assay [11] deals with OVCAR-3.
The subject of assay [12] is NCI-H522.
Assay [13] concerns Malme-3M.
Assay [14] has as its system SNB-19.
Assay [15] relates to SR.
Assay [16] deals with HOP-62.
The subject of assay [17] is SK-MEL-5.
Assay [18] deals with OVCAR-4.
Assay [19] relates to SN12C.
For assay [20], the system named is PC-3.

Take `CC1CC[C@@]2(OC1)OC1C[C@H]3[C@@H]4CC=C5C[C@@H](OC6OC(CO)C(OC7OC(CO)C(O)C(O)C7O)C(O)C6OC6OC(C)C(O)C(O)C6O)CC[C@]5(C)[C@H]4CC[C@]3(C)C1[C@@H]2C` (stereo partly specified): the GI50 in assay [1] is 0.435 µM (active); in assay [2], 1.24 µM (inactive); in assay [3] it was 3.52 µM; in assay [4] it was 0.759 µM (active); in assay [5] it was 0.753 µM (active); in assay [6] it was 0.475 µM (active). Also, the GI50 was 0.526 µM (active) in assay [7]; 0.431 µM (active) in assay [8]; 1.04 µM (active) in [9]; 0.617 µM (active) in assay [10]; 0.643 µM (active) in assay [11]; 0.998 µM (active) in assay [12]. Further, the GI50 is 0.634 µM (active) in assay [13]; 1.2 µM (inactive) in assay [14]; 0.402 µM (active) in [15]; 0.593 µM (active) in [16]; 0.543 µM (active) in [17]; 1.53 µM (inactive) in [18]. Further, the GI50 was 0.635 µM (active) in assay [19] and 0.469 µM (active) in assay [20].

For the molecule `O=C1Nc2ccc(Br)cc2/C1=N/Nc1ccccc1[N+](=O)[O-]`, the GI50 in assay [1] was 1.92 µM (inactive); in assay [2], 3.83 µM (inactive); in assay [3] it was 20.5 µM; in assay [4], 25.2 µM (inactive); in [5] it was 33.2 µM (inactive); in [6], 13.8 µM (inactive). Also, the GI50 in assay [7] is 16.4 µM (inactive); in assay [8], 32.7 µM (inactive); in [9], 10.3 µM (inactive); in assay [10], 12.5 µM (inactive); in assay [11], 10.7 µM (inactive); in [12], 15.5 µM (inactive). The GI50 was 13.6 µM (inactive) in assay [13]; 28.6 µM (inactive) in [14]; 10.2 µM (inactive) in assay [15]; 11.4 µM (inactive) in [16]; 8.63 µM (inactive) in assay [17]; 14.4 µM (inactive) in [18]. The values for the GI50 in assay [19] and in assay [20] were 18.8 µM (inactive) and 15.8 µM (inactive), respectively.

In the case of `C/C(=N\Nc1nc2cccnc2s1)c1ccccn1`, the GI50 in assay [1] was < 0.01 µM (active); in assay [2] it was < 0.01 µM (active); in [3], under 0.0218 µM; in assay [4], 2.98 µM (inactive); in assay [5], < 0.01 µM (active); in assay [6], < 0.01 µM (active). Moreover, the GI50 in assay [7] is < 0.0143 µM (active); in assay [8] it was 1.06 µM (active); in assay [10], < 0.01 µM (active); in [11], < 0.0169 µM (active); in assay [12], < 0.01 µM (active); in [13] it was < 0.01 µM (active). Further, the GI50 in assay [14] is 0.491 µM (active); in assay [15], 0.0335 µM (active); in [16], 0.401 µM (active); in assay [17] it was 0.033 µM (active); in assay [18], 1.07 µM (active); in [19] it was < 0.01 µM (active). In addition, in [20], the GI50 is 0.0202 µM (active).

Take `CC(=O)O[C@H]1[C@H](OC(C)=O)[C@@H](CN=[N+]=[N-])OCO[C@@H]1CN=[N+]=[N-]`: the GI50 in [1] was > 100 µM (inactive); in [2], > 100 µM (inactive); in assay [3], over 100 µM; in assay [4], > 100 µM (inactive); in [5], > 100 µM (inactive); in assay [6], > 100 µM (inactive). Besides, the GI50 in assay [7], in assay [8], in assay [9], in assay [10], in assay [12] and in [13] was > 100 µM (inactive) throughout. Further, the GI50 in [14], in assay [15], in assay [16], in assay [17], in assay [18] and in [19] was > 100 µM (inactive) throughout. Besides, the GI50 in [20] was > 100 µM (inactive).

`CCOC(=O)/C=C(/C(=O)OCC)n1cc(C)c(=O)n(/C(=C/C(=O)OCC)C(=O)OCC)c1=O`: the GI50 in assay [1] is 3.4 µM (inactive); in assay [2], 1.89 µM (inactive); in assay [3] it was 1.56 µM; in assay [4] it was 14.7 µM (inactive); in assay [5], 0.255 µM (active); in assay [6] it was 2.69 µM (inactive). For the same molecule, the GI50 in assay [7] was 1.88 µM (inactive); in assay [8], 1.8 µM (inactive); in assay [9], 2.08 µM (inactive); in assay [10] it was 0.354 µM (active); in assay [11], 2.79 µM (inactive); in assay [12] it was 0.49 µM (active). Further, the GI50 in assay [13] is 1.85 µM (inactive); in [14], 19.8 µM (inactive); in assay [15] it was 1.89 µM (inactive); in [16], 24.8 µM (inactive); in [17] it was 7.31 µM (inactive); in assay [18], 8.47 µM (inactive). Moreover, the GI50 in assay [19] was 2.98 µM (inactive); in assay [20], 5.22 µM (inactive).

In the case of `Cc1ccnc2c1C(=O)C1=C(OC(C)(C)CC1O)C2=O` (stereo unspecified), the GI50 was 2.97 µM (inactive) in assay [1]; 5.82 µM (inactive) in assay [2]; 2.38 µM in [3]; 2.88 µM (inactive) in assay [4]; 2.41 µM (inactive) in assay [5]; 3.08 µM (inactive) in assay [6]. In addition, the GI50 in [7] is 4.06 µM (inactive); in [8], 10.7 µM (inactive); in assay [9] it was 12 µM (inactive); in assay [10], 2.97 µM (inactive); in assay [11] it was 2.67 µM (inactive); in [12], 2.9 µM (inactive). Besides, the GI50 was 1.27 µM (inactive) in assay [13]; 7.38 µM (inactive) in assay [14]; 2.03 µM (inactive) in [15]; 3.37 µM (inactive) in assay [16]; 1.17 µM (inactive) in assay [17]; 3.01 µM (inactive) in [18]. For the same molecule, the GI50 was 3.21 µM (inactive) in [19] and 2.91 µM (inactive) in assay [20].

With `CC1=C(C(=O)OCCO[N+](=O)[O-])C(c2cccc([N+](=O)[O-])c2)C(C(=O)OC(C)C)=C(C)N1` (stereo unspecified), the GI50 was 13.3 µM (inactive) in assay [1]; 14.2 µM (inactive) in assay [2]; 14.1 µM in assay [3]; 13 µM (inactive) in assay [4]; > 100 µM (inactive) in assay [5]; 15.2 µM (inactive) in [6]. Also, the GI50 in assay [7] was 2.58 µM (inactive); in assay [8], 13.8 µM (inactive); in assay [9], 14.9 µM (inactive); in assay [10] it was 29.9 µM (inactive); in assay [11], 10.4 µM (inactive); in assay [12], 17.8 µM (inactive). For the same molecule, the GI50 is 17.7 µM (inactive) in assay [13]; 19.2 µM (inactive) in [14]; 24.8 µM (inactive) in assay [15]; 16.6 µM (inactive) in assay [16]; 12.8 µM (inactive) in assay [17]; 3.76 µM (inactive) in assay [18]. Further, the values for the GI50 in assay [19] and in [20] were 17.4 µM (inactive) and 4.25 µM (inactive), respectively.

`COc1cc(Oc2nc3ccccc3nc2C(=O)O)cc(OC)c1OC`: the GI50 in assay [1] was > 100 µM (inactive); in assay [2], > 100 µM (inactive); in assay [3], over 100 µM; in [4], > 100 µM (inactive); in [5], > 100 µM (inactive); in [6] it was > 100 µM (inactive). Further, the GI50 in assay [7], in assay [8], in [9], in [10], in [11] and in [12] was > 100 µM (inactive) throughout. In addition, the GI50 in assay [13], in assay [14], in assay [15], in [16], in assay [17] and in [18] was > 100 µM (inactive) each time. In assay [20], the GI50 was > 100 µM (inactive).

With `Cc1[nH]n(C2=NCCN2)c(=O)c1C`, the GI50 is > 100 µM (inactive) in assay [1]; > 100 µM (inactive) in assay [2]; over 100 µM in assay [3]; > 100 µM (inactive) in assay [4]; > 100 µM (inactive) in assay [5]; > 100 µM (inactive) in assay [6]. In addition, the GI50 in [7], in [8], in [9], in [10], in assay [11] and in assay [12] was > 100 µM (inactive) throughout. The GI50 in assay [13], in assay [14], in [15], in assay [16], in [17] and in [18] was > 100 µM (inactive) each time. The GI50 in assay [20] is > 100 µM (inactive).

Take `C=CC(C)(C)NC(C(=O)N1CCC[C@H]1c1nc(-c2nc(C(=O)OCC=C(C)C)c(C)o2)c(C)o1)C(C)C` (stereo partly specified): the GI50 in assay [1] was 47 µM (inactive); in [2] it was > 45.9 µM (inactive); in [3] it was over 52.1 µM; in assay [4], > 45.3 µM (inactive); in [5] it was 17.1 µM (inactive); in assay [6] it was > 52 µM (inactive). Moreover, the GI50 is > 100 µM (inactive) in assay [7]; > 55.2 µM (inactive) in [8]; > 57.8 µM (inactive) in [9]; > 59.7 µM (inactive) in assay [10]; 46.6 µM (inactive) in assay [11]; > 100 µM (inactive) in [12]. Besides, the GI50 in [13] was > 100 µM (inactive); in assay [14], > 48.6 µM (inactive); in [15], 32.2 µM (inactive); in [16] it was > 100 µM (inactive); in assay [17], 47.1 µM (inactive); in assay [18], 33.3 µM (inactive). Also, the GI50 in assay [19] is > 47.8 µM (inactive); in assay [20], > 64 µM (inactive).
